Measurements as given in publication PMC10030390, “A phase 1 open-label study to assess the relative bioavailability of TAK-931 tablets in reference to powder-in-capsule in patients with advanced solid tumors” (Investigational New Drugs, 2022).
Where “and” joins values, the source holds several entries; their conditions need not be identical. Equal entries are not always repeated. Where two headings read alike, the source gives them in different places.

Assays:
solid tumors = tested on: solid tumors; design: method as in earlier work; conditions: of 24 response-evaluable patients, first-in-human phase 1 study; cited from earlier work
[1] = tested on: locally advanced or metastatic solid tumors; assay: Antitumor activity, investigator-assessed disease response (RECIST v1.1); format: in vivo, human
Method: The primary endpoints were the ratio of geometric means of the following PK parameters for TAK-931 tablets in reference to PIC and associated 2-sided 90% confidence intervals (CIs): maximum observed plasma concentration (Cmax), area under the plasma concentration–time curve (AUC) from time 0 to time of the last quantifiable concentration (AUClast), and the AUC from time 0 to infinity (AUCinf). Secondary endpoints were PK parameters of TAK-931 80 mg following a single-dose administration as PIC or tablet (time of first occurrence of maximum observed plasma concentration [Tmax], and terminal disposition phase half-life [T1/2z]), antitumor activity, and safety.

[2] = design: method as in NCT02699749; conditions: estimated from preliminary data, ref NCT02699749; cited from earlier work

## Cc1[nH]ncc1-c1cc2nc([C@@H]3CC4CCN3CC4)[nH]c(=O)c2s1 [TAK-931]
Solid tumors
  patients with a partial response: 3
  patients with prolonged SD: 4
[1]; 19 patients evaluable for response
  partial or complete responses: No partial or complete responses
[1]; 95% CI: 1.6–2.8
  Median time to PD or death: 1.9 months
[1]; four patients with best response SD, + = censored observation
  individual progression-free survival durations of patients with SD: 3.58 months and ≥ 2.23 months and 3.55 months and 4.01 months
[2]
  within-patient coefficient of variation for AUC: 35.0%
  within-patient coefficient of variation for Cmax: 36.9%
PIC/Tablet sequence, n = 12
  On-study deaths: 0 n (%)
Tablet/PIC sequence, n = 8
  On-study deaths: 1 (13) n (%)
human, in vivo
  Dose modification: Dose increased: 0 n (%)
  Serious TEAEs: Not related: 2 (25) n (%) and 2 (17) n (%) and 4 (20) n (%)
  TEAE Alopecia, Any-grade: 6 (30) n (%)
  TEAE Constipation, Any-grade: 8 (40) n (%)
  TEAE Decreased appetite, Any-grade: 4 (20) n (%)
  TEAE Disturbance in attention, Any-grade: 2 (10) n (%)
  TEAE Dyspnea, Any-grade: 3 (15) n (%)
  TEAE Dyspnea, Grade ≥ 3: 1 (5) n (%)
  TEAE Fatigue, Any-grade: 13 (65) n (%)
  TEAE Fatigue, Grade ≥ 3: 1 (5) n (%)
  TEAE Headache, Any-grade: 3 (15) n (%)
  TEAE Hypertension, Any-grade: 3 (15) n (%)
  TEAE Hypertension, Grade ≥ 3: 1 (5) n (%)
  TEAE Hypokalemia, Any-grade: 1 (5) n (%)
  TEAE Hypokalemia, Grade ≥ 3: 1 (5) n (%)
  TEAE Ileus, Any-grade: 2 (10) n (%)
  TEAE Ileus, Grade ≥ 3: 2 (10) n (%)
  TEAE Nausea, Any-grade: 8 (40) n (%)
  TEAE Neutropenia, Any-grade: 2 (10) n (%)
  TEAE Neutropenia, Grade ≥ 3: 2 (10) n (%)
  TEAE Pneumonia, Any-grade: 1 (5) n (%)
  TEAE Pneumonia, Grade ≥ 3: 1 (5) n (%)
  TEAE Rectal cancer, Any-grade: 1 (5) n (%)
  TEAE Rectal cancer, Grade ≥ 3: 1 (5) n (%)
  TEAE Vomiting, Any-grade: 6 (30) n (%)
  TEAE Weight decrease, Any-grade: 3 (15) n (%)
  patients with TEAE alopecia: 30%
  patients with TEAE constipation: 40%
  patients with TEAE fatigue: 65%
  patients with TEAE nausea: 40%
  patients with TEAE vomiting: 30%
  patients with grade ≥ 3 TEAE ileus: 10%
  patients with grade ≥ 3 TEAE neutropenia: 10%
  patients with treatment-related TEAE alopecia: 30%
  patients with treatment-related TEAE decreased appetite: 20%
  patients with treatment-related TEAE fatigue: 50%
  patients with treatment-related TEAE nausea: 30%
  patients with treatment-related TEAE vomiting: 20%
